The values that follow come from article PMC11855827, “High-Throughput Screening of Five Compound Libraries for Anthelmintic Activity and Toxicity Leads to the Discovery of Two Flavonoid Compounds” (International Journal of Molecular Sciences, 2025).

In this assay the test system is C. elegans. The note with it: Table S2, C. elegans SS assay, 110 μM, averages of 4 data points.

In the case of `C=C1C(=O)O[C@@H]2CC(C)=C([C@@H](C)CCCOC(C)=O)[C@@H](O)[C@H]12` [Inulicin], the “Percentage of motility inhibition 0 h” value was determined as 0% and the “Percentage of motility inhibition 24 h” value is 16%.

Consider `C=C[C@H]1[C@H](O[C@@H]2O[C@H](CO)[C@@H](O)[C@H](O)[C@H]2O)OC=C(C(=O)OC)[C@H]1C[C@@H]1c2cc(O)c(O)cc2CCN1C(C)=O` [Ipecoside], for which the “Percentage of motility inhibition 0 h” value stood at 0% and the “Percentage of motility inhibition 24 h” value amounted to 14%.

On to `CCc1c2c(nc3ccc(OC(=O)N4CCC(N5CCCCC5)CC4)cc13)-c1cc3c(c(=O)n1C2)COC(=O)[C@]3(O)CC.Cl` [Irinotecan (hydrochloride)], for which the “Percentage of motility inhibition 0 h” value amounted to 0% and the “Percentage of motility inhibition 24 h” value is 11%.

On to `COc1ccc(-c2coc3cc(O[C@@H]4O[C@H](CO)[C@@H](O)[C@H](O)[C@H]4O)c(OC)c(O)c3c2=O)cc1O` [Iristectorin A], for which the “Percentage of motility inhibition 0 h” value is reported as 0% and the “Percentage of motility inhibition 24 h” value is 2%.

`COc1cc(-c2coc3cc(O[C@@H]4O[C@H](CO)[C@@H](O)[C@H](O)[C@H]4O)c(OC)c(O)c3c2=O)ccc1O` [Iristectorin B]: the “Percentage of motility inhibition 0 h” value was found to be 5% and the “Percentage of motility inhibition 24 h” value came out at 6%.

Take `CC(=O)O[C@@H]1[C@@H](O)[C@H](O[C@H]2CC[C@]34C[C@]35CC[C@]3(C)[C@@H]([C@@]6(C)CC[C@@H](C(C)(C)O)O6)[C@@H](O)C[C@@]3(C)[C@@H]5C[C@H](O[C@@H]3O[C@H](CO)[C@@H](O)[C@H](O)[C@H]3O)[C@H]4C2(C)C)OC[C@H]1O` [Isoastragaloside II]: the “Percentage of motility inhibition 0 h” value came to 0% and the “Percentage of motility inhibition 24 h” value is reported as 9%.

Consider `CC(C)(O[C@@H]1O[C@H](CO)[C@@H](O)[C@H](O)[C@H]1O)[C@@H]1CC[C@](C)([C@H]2[C@@H](O)C[C@@]3(C)[C@@H]4C[C@H](O)[C@H]5C(C)(C)[C@@H](O[C@@H]6OC[C@@H](O)[C@H](O)[C@H]6O)CC[C@@]56C[C@@]46CC[C@]23C)O1` [Isoastragaloside IV], for which the “Percentage of motility inhibition 0 h” value turned out to be 0% and the “Percentage of motility inhibition 24 h” value is recorded as 0%.

For the compound `CC(=O)O[C@H]1[C@H](O[C@H]2CC[C@]34C[C@]35CC[C@]3(C)[C@@H]([C@@]6(C)CC[C@@H](C(C)(C)O)O6)[C@@H](O)C[C@@]3(C)[C@@H]5C[C@H](O[C@@H]3O[C@H](CO)[C@@H](O)[C@H](O)[C@H]3O)[C@H]4C2(C)C)OC[C@@H](OC(C)=O)[C@@H]1O` [Isoastragaloside I], the “Percentage of motility inhibition 0 h” value was 12% and the “Percentage of motility inhibition 24 h” value was 59%.

With `Clc1ccc(C(Cn2ccnc2)OCc2c(Cl)cccc2Cl)c(Cl)c1.O=[N+]([O-])O` (stereo not shown) [Isoconazole (nitrate)], the “Percentage of motility inhibition 0 h” value is recorded as 17% and the “Percentage of motility inhibition 24 h” value was 4%.

With `CC1(C)C2=CCCC(C)(C)[C@]23CC[C@H]1C3` [Isolongifolene], the “Percentage of motility inhibition 0 h” value is listed as 2% and the “Percentage of motility inhibition 24 h” value turned out to be 39%.

On to `O=c1c2cc(O)c(O)cc2oc2c([C@@H]3O[C@H](CO)[C@@H](O)[C@H](O)[C@H]3O)c(O)cc(O)c12` [Isomangiferin], for which the “Percentage of motility inhibition 0 h” value is listed as 28% and the “Percentage of motility inhibition 24 h” value stood at 46%.

As to `C[C@H](CC[C@@H](O[C@@H]1O[C@H](CO[C@@H]2O[C@H](CO)[C@@H](O)[C@H](O)[C@H]2O)[C@@H](O)[C@H](O)[C@H]1O[C@@H]1O[C@H](CO)[C@@H](O)[C@H](O)[C@H]1O)C(C)(C)O)[C@H]1CC[C@@]2(C)[C@@H]3CC=C4[C@@H](CC[C@H](O[C@@H]5O[C@H](CO)[C@@H](O[C@@H]6O[C@H](CO)[C@@H](O)[C@H](O)[C@H]6O)[C@H](O)[C@H]5O)C4(C)C)[C@]3(C)[C@H](O)C[C@]12C` [Isomogroside V], the “Percentage of motility inhibition 0 h” value was 28% and the “Percentage of motility inhibition 24 h” value was found to be 21%.

`COc1ccc([C@@H]2COc3cc(O[C@@H]4O[C@H](CO)[C@@H](O)[C@H](O)[C@H]4O)ccc3C2)c(O)c1OC` [Isomucronulatol 7‐O‐glucoside]: the “Percentage of motility inhibition 0 h” value was 8% and the “Percentage of motility inhibition 24 h” value came out at 10%.

Consider `COc1ccc(C2COc3cc(O)ccc3C2)c(O)c1OC` (stereo not shown) [Isomucronulatol], for which the “Percentage of motility inhibition 0 h” value turned out to be 7% and the “Percentage of motility inhibition 24 h” value is given as 7%.

As to `COC(=O)C1=CO[C@@H](C)[C@@H]2CN3CC[C@@]4(C(=O)Nc5ccccc54)[C@@H]3C[C@H]12` [Isopteropodine], the “Percentage of motility inhibition 0 h” value amounted to 9% and the “Percentage of motility inhibition 24 h” value came out at 0%.

On to `COc1cc(-c2oc3cc(O)cc(O)c3c(=O)c2O[C@@H]2O[C@H](CO)[C@@H](O)[C@H](O)[C@H]2O[C@@H]2O[C@@H](C)[C@H](O)[C@@H](O)[C@H]2O)ccc1O` [Isorhamnetin‐3‐O‐neohespeidoside], for which the “Percentage of motility inhibition 0 h” value stood at 45% and the “Percentage of motility inhibition 24 h” value worked out at 5%.

`COc1ccc([C@@H]2CC(=O)c3c(O)cc(O[C@@H]4O[C@H](CO)[C@@H](O)[C@H](O)[C@H]4O)cc3O2)cc1` [Isosakuranin]: the “Percentage of motility inhibition 0 h” value amounted to 1% and the “Percentage of motility inhibition 24 h” value is recorded as 2%.

Regarding `O=c1cc(-c2ccc(O)cc2)oc2c([C@@H]3O[C@H](CO)[C@@H](O)[C@H](O)[C@H]3O)c(O)c([C@@H]3OC[C@H](O)[C@H](O)[C@H]3O)c(O)c12` [Isoschaftoside], the “Percentage of motility inhibition 0 h” value came out at 9% and the “Percentage of motility inhibition 24 h” value is given as 0%.

For `COc1cc(C2Oc3ccc([C@H]4Oc5cc(O)cc(O)c5C(=O)[C@@H]4O)cc3OC2CO)ccc1O` (stereo partly shown) [Isosilybin], the “Percentage of motility inhibition 0 h” value amounted to 2% and the “Percentage of motility inhibition 24 h” value stood at 0%.

As for `COc1ccc(-c2cc(=O)c3c(OC)cc(OC)c(OC)c3o2)cc1OC` [Isosinensetin], the “Percentage of motility inhibition 0 h” value is reported as 0% and the “Percentage of motility inhibition 24 h” value worked out at 2%.

As for `C[C@H]1CC[C@@H]2N(C1)C[C@H]1[C@@H]3C[C@H]4[C@@H](C[C@@H](O)[C@H]5C[C@@H](O)CC[C@@]54C)[C@@H]3CC[C@@H]1[C@]2(C)O` [Isoverticine], the “Percentage of motility inhibition 0 h” value came to 0% and the “Percentage of motility inhibition 24 h” value was 0%.

With `C[C@@H]1O[C@@H](c2c(O)c([C@@H]3O[C@H](CO)[C@@H](O)[C@H](O)[C@H]3O)c3oc(-c4ccc(O)cc4)cc(=O)c3c2O)[C@H](O)[C@H](O)[C@H]1O` [Isoviolanthin], the “Percentage of motility inhibition 0 h” value is reported as 21% and the “Percentage of motility inhibition 24 h” value stood at 2%.

Regarding `COc1cc(-c2cc(=O)c3c(O)c(OC)c(O)cc3o2)ccc1O` [Jaceosidin], the “Percentage of motility inhibition 0 h” value came to 0% and the “Percentage of motility inhibition 24 h” value was 5%.

`COc1cc2c(cc1O)CC[n+]1cc3c(OC)c(OC)ccc3cc1-2.[Cl-]` [Jatrorrhizine (chloride)]: the “Percentage of motility inhibition 0 h” value came out at 33% and the “Percentage of motility inhibition 24 h” value turned out to be 4%.

Regarding `COc1cc2c(cc1O)CC[n+]1cc3c(OC)c(OC)ccc3cc1-2.[OH-]` [Jatrorrhizine (hydroxide)], the “Percentage of motility inhibition 0 h” value is 8% and the “Percentage of motility inhibition 24 h” value was found to be 5%.

In the case of `Oc1cnc2c(O)cccc2c1` [Jineol], the “Percentage of motility inhibition 0 h” value stood at 0% and the “Percentage of motility inhibition 24 h” value is listed as 0%.
